Structures are written as SMILES.

These results are taken from the supplement of paper PMC6723410.

The test system of experiment [1] is GUMC-403. In words: viability at highest tested concentration (max response) relative to DMSO (% of DMSO control); higher = less cytotoxic. To be noted: library / dose series: MIPE library, 11-point 1:3 dilution; top concentration 46.1 µM; 48 h. Summed up: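 In 1536-well plates, 700 GUMC-403 papilloma cells per well, taken from a patient and grown by conditional reprogramming, were seeded in 5 μL F + Y medium and incubated overnight at 37 °C. Compounds were pinned in at 23 nL in an 11-point 1:3 series, and left for 48 h before CellTiter-Glo luminescence was read on a ViewLux against vehicle (100%) and empty (0%) wells. Reported values are viability at the highest tested concentration relative to vehicle control.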

For experiment [2], the system named is GUMC-403. In words: AC50 for reduction of cell viability; higher = less potent. To be noted: 48 h.
Setting [3] is: library / dose series: MIPE library, 11-point 1:3 dilution.
The mark [4] stands for this setting: library / dose series: NPC library, 8-point 1:5 dilution.

Take `O=C(/C=C/c1ccc(CN(CCO)CCc2c[nH]c3ccccc23)cc1)NO`: in the experiment with GUMC-403 [1], the viability is 44.9. Moreover, in the experiment with GUMC-403 [2] (setting [3]), the “AC50 for reduction of cell viability” value was found to be 5.9 µM.

`CCOc1cc2ncc(C#N)c(Nc3ccc(F)c(Cl)c3)c2cc1NC(=O)/C=C/CN(C)C` had a viability with GUMC-403 [1] of 76.1. The “AC50 for reduction of cell viability” value in the experiment with GUMC-403 [2] (setting [3]) amounted to 0.0296 µM.

Consider `COc1ncc(-c2ccc3nccc(-c4ccnnc4)c3c2)cc1N[S+](=O)([O-])c1ccc(F)cc1F`, for which the viability in the experiment with GUMC-403 [1] was 9.41. For the same compound, in the experiment on GUMC-403 [2] (setting [3]), the “AC50 for reduction of cell viability” value was 0.59 µM.

In the experiment on GUMC-403 [1], `CNC(=O)c1ccccc1Nc1nc(Nc2ccc(N3CCOCC3)cc2OC)ncc1Cl` yielded a viability of 9.51. Moreover, the “AC50 for reduction of cell viability” value in the experiment with GUMC-403 [2] (setting [3]) stood at 1.48 µM.

In the experiment with GUMC-403 [1], `COC[C@H]1OC(=O)C2=COC3=C2[C@@]1(C)\C4=C(\[C@@H]5CC[C@H](O)[C@@]5(C)C[C@H]4OC(C)=O)C3=O` showed a viability of 57.4. Further, the “AC50 for reduction of cell viability” value with GUMC-403 [2] (setting [3]) was found to be 4.18 µM.

For the compound `COc1cc2ncnc(Nc3cc(Br)c(O)c(Br)c3)c2cc1OC`, the viability with GUMC-403 [1] is 73.9. In addition, in the experiment with GUMC-403 [2] (setting [3]), the “AC50 for reduction of cell viability” value worked out at 1.48 µM.

As for `CCCCOc1c(C(=O)c2c(F)cc(C)cc2F)cnc2[nH]ncc12`, the viability in the experiment with GUMC-403 [1] was 75.8. Also, in the experiment on GUMC-403 [2] (setting [3]), the “AC50 for reduction of cell viability” value turned out to be 8.33 µM.

For `CN(c1ncccc1CNc1nc(Nc2ccc3c(c2)CC(=O)N3)ncc1C(F)(F)F)[S+](C)(=O)[O-]`, the viability in the experiment with GUMC-403 [1] was 28. Also, the “AC50 for reduction of cell viability” value with GUMC-403 [2] (setting [3]) is 7.43 µM.

Regarding `CCN(CC)CCNC(=O)c1ccc2nc(-c3ccccc3)c(-c3ccc(CN4CCC(n5c(=O)[nH]c6ccccc65)CC4)cc3)nc2c1`, the viability in the experiment on GUMC-403 [1] is 3.89. Besides, in the experiment on GUMC-403 [2] (setting [3]), the “AC50 for reduction of cell viability” value was found to be 10.5 µM.

The compound `COc1cccc2c1C(=O)c1c(O)c3c(c(O)c1C2=O)C[C@@](O)(C(=O)CO)C[C@@H]3O[C@H]1C[C@H](N)[C@@H](O)[C@H](C)O1` registered a viability in the experiment with GUMC-403 [1] of 48.5. For the same compound, the “AC50 for reduction of cell viability” value in the experiment with GUMC-403 [2] (setting [3]) turned out to be 2.09 µM.

The compound `CC1(C)Cc2c(sc(NC(=S)NC(=O)c3ccccc3)c2C(=O)O)CO1` had a viability in the experiment with GUMC-403 [1] of 25.5. Moreover, in the experiment on GUMC-403 [2] (setting [3]), the “AC50 for reduction of cell viability” value amounted to 26.4 µM.

Regarding `C[C@@H]\1COC(=N1)\NC2=CC3=C(C=C2)N=CN=C3NC4=CC(=C(OCC5=NC=CS5)C=C4)Cl`, the viability in the experiment on GUMC-403 [1] is 54.5. In addition, the “AC50 for reduction of cell viability” value in the experiment on GUMC-403 [2] (setting [3]) worked out at 0.59 µM.

In the experiment with GUMC-403 [1], `CC1(COc2ccc3c(c2)ncn3-c2ccc3cccc(N4CCC(N)CC4)c3n2)COC1` yielded a viability of 51.9. In addition, the “AC50 for reduction of cell viability” value in the experiment with GUMC-403 [2] (setting [3]) was determined as 0.0105 µM.

Compound `CNC(=O)c1nn(C)c2c1C(C)(C)Cc1cnc(Nc3ccc(N4CCN(C)CC4)cc3)nc1-2` had a viability with GUMC-403 [1] of 58.7. Besides, in the experiment on GUMC-403 [2] (setting [3]), the “AC50 for reduction of cell viability” value was 4.69 µM.

Consider `Cc1ccc2nc(NCCN)c3ncc(C)n3c2c1`, for which the viability with GUMC-403 [1] was determined as 33.4. In the experiment on GUMC-403 [2] (setting [3]), the “AC50 for reduction of cell viability” value came out at 13.2 µM.

Compound `Cc1ccc(C(N)=O)cc1Nc1nccc(-c2cn(C(C)C)c3cnccc23)n1` had a viability in the experiment on GUMC-403 [1] of 30. Also, the “AC50 for reduction of cell viability” value with GUMC-403 [2] (setting [3]) is 8.33 µM.

As to `CC(C)n1nc(-c2cc3cc(O)ccc3[nH]2)c2c(N)ncnc21`, the viability with GUMC-403 [1] amounted to 69.2. For the same compound, the “AC50 for reduction of cell viability” value with GUMC-403 [2] (setting [4]) is 1.19 µM.

Compound `NCC(=O)Nc1ccc(-n2nc(C(F)(F)F)cc2-c2ccc3c(ccc4ccccc43)c2)cc1` gave a viability in the experiment on GUMC-403 [1] of 1.75. In addition, in the experiment on GUMC-403 [2] (setting [3]), the “AC50 for reduction of cell viability” value is 26.4 µM.

As to `CC(C)(O)c1cc2nc(-c3cnc(N)nc3)nc(N3CCOCC3)c2s1`, in the experiment with GUMC-403 [1], the viability was 33.5. For the same compound, the “AC50 for reduction of cell viability” value in the experiment on GUMC-403 [2] (setting [3]) was 0.148 µM.

For the compound `CNC(=O)c1ccc(N2C(=S)N(c3cnc(C#N)c(C(F)(F)F)c3)C(=O)C23CCC3)cc1F`, in the experiment on GUMC-403 [1], the viability came to 16.6. The “AC50 for reduction of cell viability” value in the experiment with GUMC-403 [2] (setting [3]) amounted to 13.2 µM.

`CN1\N=C(N)/C2=C[N]([C@@H]3O[C@H](CO[P](O)(O)=O)[C@@H](O)[C@H]3O)C4=C2C1=NC=N4` yielded a viability in the experiment on GUMC-403 [1] of 57.8. Further, the “AC50 for reduction of cell viability” value with GUMC-403 [2] (setting [3]) stood at 1.48 µM.

In the case of `CC(C)C[C@@H](C(=O)N[C@H](C(=O)OC1CCCC1)c1ccccc1)[C@H](O)C(=O)NO`, in the experiment with GUMC-403 [1], the viability came out at 66.7. Moreover, the “AC50 for reduction of cell viability” value in the experiment with GUMC-403 [2] (setting [3]) is 1.66 µM.

Compound `CN1CC[C@H]([C@@H](O)C1)C2=C(O)C=C(O)C3=C2O\C(=C/C3=O)C4=CC=CC=C4Cl` registered a viability with GUMC-403 [1] of 61.2. Further, the “AC50 for reduction of cell viability” value in the experiment on GUMC-403 [2] (setting [3]) turned out to be 0.132 µM.

Regarding `Cl.Cl.Fc1ccc(C(OCCN2CCN(CCCc3ccccc3)CC2)c2ccc(F)cc2)cc1`, in the experiment on GUMC-403 [1], the viability stood at 67.6. Besides, in the experiment on GUMC-403 [2] (setting [4]), the “AC50 for reduction of cell viability” value turned out to be 11.9 µM.

As for `COc1cc2ncn(-c3cc(OCc4ccccc4C(F)(F)F)c(C(N)=O)s3)c2cc1OC`, the viability in the experiment with GUMC-403 [1] was 18.8. The “AC50 for reduction of cell viability” value in the experiment on GUMC-403 [2] (setting [3]) worked out at 23.5 µM.
